# In patent US5831026A, “Process for purifying factor VIII” (Pharmacia & Upjohn AB, priority 1994, dated 1998):
# How the values were obtained:
# [1] = tested on: metal-dependent proteases; assay: Protease assay with resorufin-labeled casein in harvest solution (conditioned medium); type: biochemical, Chinese Hamster; details: for Mean absorbance corrected: blank subtracted
# Protocol: The method chosen was a protease assay with casein which was resorufin-labeled. By treatment with proteases, resorufin-labeled peptides are released from the casein. The concentration of these resorufin-labeled peptides in the supernatant is a measure of the proteolytic activity present. The test sample was incubated at 37° C. for a period of time which was dependent upon the sample at issue. The absorption wave-length chosen was 574 run throughout the tests. […]
# Preincubation of the conditioned medium with or without EDTA was conducted at 37° C. for 2 h. After the addition of substrate, further incubation was carried out for 17 h. The pH in the incubation mixture was 7.5.
# Absorbance corrected, refers to the absorption after subtraction of the blank value.
# Conditioned medium (containing human serum albumin) was clarified and imidazole subsequently added in an amount ranging from 3.6 mM up to 360 mM.
# Conditioned medium (containing human serum albumin) was clarified and histidine subsequently added in an amount ranging from 0.14 mM to 13.6 mM.
# factor VIII = assay: Activity of factor VIII after addition of complexing agent to eluted solution from SP Sepharose FF, COATEST chromogenic assay; type: biochemical; details: Example 8; for Factor VIII activity (%): 0 h without additive = 100
# Protocol: Tests without EDTA present were carried out for comparison.
# (§1) A conditioned medium (containing human serum albumin) from a different harvest than the previous Examples, was clarified and buffered with NH4 Ac. […] After elution, various amounts of EDTA were added to the resulting solution. Tests without EDTA present were carried out for comparison. The procoagulant activity of factor VIII was determined after storage at ambient temperature for up to 246 hours, in accordance to the procedure described in Example 5.
# as §1, with “28” for “246”
# A conditioned medium (containing human serum albumin) from a different harvest than the previous Examples, was clarified and buffered with NH4 Ac. The resulting solution was loaded onto a column containing SP SEPHAROSE® FF. This cation-exchange chromatography step was performed at 10° C. […] After elution, EDTA or 1,10-Phenanthroline were added to the resulting solution.
# [2] = 5 mM Phenanthroline, incubation 4.5 h ambient
# [3] = 5 mM Phenanthroline, incubation 7.5 h ambient
# [4] = 5 mM Phenanthroline, incubation 24 h ambient
# [5] = 11 mM Phenanthroline, incubation 4.5 h ambient
# [6] = 11 mM Phenanthroline, incubation 7.5 h ambient
# [7] = 11 mM Phenanthroline, incubation 24 h ambient
smiles,measurement,setting,value
c1c[nH]cn1 [imidazole],Mean absorbance,[1]; 3.6 mM imidazole,2891
same,Protease activity (%),[1]; 3.6 mM imidazole,95%
same,Mean absorbance corrected,[1]; 3.6 mM imidazole,1921
same,Mean absorbance,[1]; 18 mM imidazole,2985
same,Protease activity (%),[1]; 18 mM imidazole,100%
same,Mean absorbance corrected,[1]; 18 mM imidazole,2015
same,Mean absorbance,[1]; 36 mM imidazole,3190
same,Protease activity (%),[1]; 36 mM imidazole,110%
same,Mean absorbance corrected,[1]; 36 mM imidazole,2220
same,Mean absorbance,[1]; 180 mM imidazole,1258
same,Protease activity (%),[1]; 180 mM imidazole,14%
same,Mean absorbance corrected,[1]; 180 mM imidazole,288
same,Mean absorbance,[1]; 360 mM imidazole,1143
same,Protease activity (%),[1]; 360 mM imidazole,9%
same,Mean absorbance corrected,[1]; 360 mM imidazole,173
"N[C@@H](Cc1c[nH]cn1)C(=O)O [Histidine, L-histidine]",Mean absorbance,[1]; 0.14 mM histidine,2561
same,Protease activity (%),[1]; 0.14 mM histidine,79%
same,Mean absorbance corrected,[1]; 0.14 mM histidine,1591
same,Mean absorbance,[1]; 0.7 mM histidine,2857
same,Protease activity (%),[1]; 0.7 mM histidine,94%
same,Mean absorbance corrected,[1]; 0.7 mM histidine,1887
same,Mean absorbance,[1]; 1.4 mM histidine,3153
same,Protease activity (%),[1]; 1.4 mM histidine,108%
same,Mean absorbance corrected,[1]; 1.4 mM histidine,2183
same,Mean absorbance,[1]; 7 mM histidine,1495
same,Protease activity (%),[1]; 7 mM histidine,26%
same,Mean absorbance corrected,[1]; 7 mM histidine,525
same,Mean absorbance,[1]; 13.6 mM histidine,1684
same,Protease activity (%),[1]; 13.6 mM histidine,35%
same,Mean absorbance corrected,[1]; 13.6 mM histidine,714
"c1cnc2c(c1)ccc1cccnc12 [Phenanthroline, 1,10-Phenanthroline]",Factor VIII activity (IU/ml),factor VIII; [2],750 IU/ml
same,Factor VIII activity (%),factor VIII; [2],84%
same,Factor VIII activity (IU/ml),factor VIII; [3],964 IU/ml
same,Factor VIII activity (%),factor VIII; [3],109%
same,Factor VIII activity (IU/ml),factor VIII; [4],933 IU/ml
same,Factor VIII activity (%),factor VIII; [4],105%
same,Factor VIII activity (IU/ml),factor VIII; [5],869 IU/ml
same,Factor VIII activity (%),factor VIII; [5],98%
same,Factor VIII activity (IU/ml),factor VIII; [6],996 IU/ml
same,Factor VIII activity (%),factor VIII; [6],112%
same,Factor VIII activity (IU/ml),factor VIII; [7],916 IU/ml
same,Factor VIII activity (%),factor VIII; [7],103%
